This note sets out measurements from patent publication US11111217B2, “2-arylbenzimidazoles as Ppargc1a activators for treating neurodegenerative diseases” (The Board of Trustees of the Leland Stanford Junior …, priority 2018, dated 2021).

Data set [1] is described as follows: Microsome stability assay, human liver microsomes. In kind it is in vitro ADME. The note with it: pH 7.4, 1 μM test compound, NADPH 1 mM, 37° C., 0-40 mins, read-out: HLM t1/2. As for the experimental part: (§1) Microsome Stability Assay Protocol
(§2) Human liver microsomes (Corning #452117 lot 38291) or Mouse liver microsomes (Corning #452701, lot #6328004) were separately combined at a final concentration of […] with KxPO4 pH 7.4 (100 mM), MgCl2 (10 mM), and test compound (1 μM) and pre-incubated (10 min, 37° C.). Next, NADPH (1 mM) was added to begin reactions (total volume 100 μL). At various time points (0, 10, 20, and 40 mins), reactions were quenched with Clem stop solution (100 μL, 625 ng/mL) (Cyprotex) in Acetonitrile. Samples were centrifuged at 4000 g for 20 mins, diluted (75 μL into 75 μL 0.1% formic acid in water), and analyzed by LC-MS/MS.

For data set [2], the system named is TNF-α production by BV2 cells or PBMC. Nature of the data set: Cellular assay to measure TNF-α inhibition (LPS-stimulated, ELISA). In kind it is cell-based, murine (BV2) or human (PBMC). As to conditions: BV2 cells or PBMC (not specified), LPS 100 ng/ml over 24 hours, relative to DMSO vehicle; compound concentration not stated. The text has this:
Oxidative metabolism exerts an anti-inflammatory effect on myeloid cell phenotype (O'Neill L A, Front Immunol. 2014) and Ppargc1a can promote this energy metabolic pathway (Spiegelman BM, Novartis Found Symp. 2007). Thus, pharmacological activation of Ppargc1a would be expected to inhibit the inflammatory response of myeloid cells. This phenomenon can be measured in cultures by a TNF-α inhibition assay.
Cellular Assay Protocol to Measure TNF-α Inhibition
The murine myeloid cell line BV2 or human peripheral blood mononuclear cells (PBMC) are cultured in RPMI 1640 media (Cat #11875119, Gibco) supplemented with 10% fetal bovine serum and 1% L-glutamine 1% penicillin. These cells are then stimulated with 100 ng/ml of lipopolysaccharide (LPS, O111:B34, Cat # L2630, Sigma) over 24 hours. LPS stimulation results in the secretion of the inflammatory cytokine TNF-α by BV2 cells or PBMC, which can be quantified by ELISA in culture supernatant samples per manufacturer's protocol (Cat #558273 for BV2 and Cat #558299 for PBMC, BD Biosciences). To determine whether exampl compounds 1-78 inhibit TNF-α production by BV2 cells or PBMC, the cells were cultured in the presence of the compounds at different concentrations, and fold reduction in TNF-α production relative to TNF-α production by the same cells cultured in the presence of dimethylsulfoxide (as vehicle control) was determined.
A general note: In an ELISA, binding on a coated surface is turned into a signal by an enzyme label.

The test system of data set [3] is Caco-2 cells. Nature of the data set: Caco-2 permeability assay. The note with it: 10 μM, HBSS pH 7.4, 37° C., 2 h; for Caco2 A → B: without elacridar. For orientation: Passage across Caco-2 layers is used to estimate intestinal permeability.
Method: Caco-2 Permeability Assay Protocol
Caco-2 cells were maintained in DMEM in an atmosphere of 5% CO2. For transport experiments 5×10^5 cells/well of were seeded on polycarbonate filter inserts and allowed to grow and differentiate for 21±4 days before the cell monolayers were used for experiments. Apparent permeability coefficients were determined for A→B and B→A directions with and without the presence of elacridar as a transporter inhibitor. Up to three test items and reference compounds were dissolved in Hank's balanced salt solution at pH 7.4 to yield a final concentration of 10 μM.
The assays were performed in HBSS containing 25 mM HEPES (pH 7.4) at 37° C. Prior to the study, the monolayers were washed in prewarmed HBSS. At the start of the experiments prewarmed HBSS containing the test items was added to the donor side of the monolayer and HBSS without test items was added to the receiver side. Aliquots of the receiver side were taken over the 2 h incubation period; aliquots of the donor side were taken at 0 hand 2 h. Aliquots were diluted with an equal volume of methanol/water with 0.1% formic acid containing the internal standard. The mixture was analyzed by LC-MS/MS. The apparent permeability coefficients (Papp) were calculated using the formula: Papp=(dCrec/dt)/(A×C0,donor)]×106 with dCrev/dt being the change in concentration in the receiver compartment with time, C0,donor the concentration in the donor compartment at time 0, and A the area of the compartment with the cells.
The nature of data set [4]: Caco-2 permeability assay. The note with it: human, Caco-2, pH 7.4, with elacridar (concentration not stated).
Data set [5] in a line: Microsome stability assay, mouse liver microsomes. It is filed as in vitro ADME. As to conditions: pH 7.4, 1 μM test compound, NADPH 1 mM, 37° C., 0-40 mins, read-out: MLM t1/2. As for the experimental part:
as §1, §2

Where “and” joins values, the source holds several entries; their conditions need not be identical. Equal values may be shown once.

For orientation: Papp A→B means the apparent permeability from the apical to the basolateral side of a cell layer. The low end stands for poor permeation, the high end for ready permeation.

As for `[2H]c1cc([2H])c2nc(-c3ccc(C(C)(C)C)cc3)[nH]c2c1` [Example 61, 2-(4-tert-Butylphenyl)-4,6-dideuterio-1H-benzo[d]imidazole], the values for the half-life at 1 μM in data set [1] and in data set [5] were 13.6 min and 23.8 min, respectively. The “TNF α Inhibition” value in data set [2] was “A (A = >80% inh.)”. In addition, in data set [3], the “Caco2 A → B” value was 15.5 nm/s. In addition, the Papp A→B at 2 h, 10 μM in data set [4] is 10.6 nm/s.

`CC(C)(C)c1ccc(-c2nc3cnccc3[nH]2)cc1` [Example 2, 2-(4-(tert-Butyl)phenyl)-1H-imidazo[4,5-c]pyridine]: the “TNF α Inhibition” value in data set [2] is listed as “A (A = >80% inh.)”. Further, in data set [3], the “Caco2 B → A” value turned out to be 57.1 nm/s; the “Caco2 A → B” value was 24.7 nm/s and 22.3 nm/s. The compound further had an apparent permeability from apical to basolateral (Papp A→B) at 2 h, 10 μM in data set [4] of 21.5 nm/s.

For the compound `CC(C)(C)c1ccc(-c2nc3cc(C(N)=O)ccc3[nH]2)cc1` [Example 75, 2-(4-tert-Butylphenyl)-1H-benzo[d]imidazol-5-carboxamide], the “TNF α Inhibition” value in data set [2] is on record as “A (A = >80% inh.)”. For the same compound, in data set [3], the “Caco2 B → A” value stood at 28.5 nm/s and the “Caco2 A → B” value stood at 16 nm/s. Also, the apparent permeability from apical to basolateral (Papp A→B) at 2 h, 10 μM in data set [4] was 13.3 nm/s.

In the case of `CC(C)(C)c1ccc(-c2nc3c(F)cc(F)cc3[nH]2)cc1` [Example 57, 2-(4-tert-Butylphenyl)-4,6-difluoro-1H-benzo[d]imidazole], the half-life at 1 μM in data set [1] is 99.2 min. For the same compound, the “TNF α Inhibition” value in data set [2] is on record as “A (A = >80% inh.)”. Further, in data set [3], the “Caco2 B → A” value was found to be 8.42 nm/s and the “Caco2 A → B” value is recorded as 11.1 nm/s. Also, the apparent permeability from apical to basolateral (Papp A→B) at 2 h, 10 μM in data set [4] was found to be 1.3 nm/s. Besides, in data set [5], the half-life at 1 μM stood at 46.7 min.

In the case of `CCCC(=O)OCn1c(-c2ccc(C(C)(C)C)cc2)nc2ccccc21` [Example 2-P, (2-(4-(tert-Butyl)phenyl)-1H-benzo[d]imidazol-1-yl)methyl butyrate], the “Caco2 A → B” value in data set [3] was 0.532 nm/s and 1.01 nm/s. In data set [4], the apical-to-basolateral permeability (Papp A→B) at 2 h, 10 μM is 0.282 nm/s.

As for `CC(C)(C)c1ccc(-c2nc3cc(N)ccc3[nH]2)cc1` [Example 44, 2-(4-tert-Butylphenyl)-1H-benzo[d]imidazol-5-amine], the half-life at 1 μM in data set [1] came to 42.5 min; in data set [5] it was 20.6 min. In addition, the “TNF α Inhibition” value in data set [2] was “A (A = >80% inh.)”. In data set [3], the “Caco2 B → A” value turned out to be 45.4 nm/s. For the same compound, in data set [3], the “Caco2 A → B” value worked out at 23.6 nm/s. In data set [4], this compound came in with a Papp A→B at 2 h, 10 μM of 20.5 nm/s.

Take `COC(=O)n1c(-c2ccc(C(C)(C)C)cc2)nc2ccccc21` [Example 14-P, Methyl 2-(4-(tert-butyl)phenyl)-1H-benzo[d]imidazole-1-carboxylate]: the half-life at 1 μM was found to be 25.1 min in data set [1] and 5.5 min in data set [5]. For the same compound, the “Caco2 A → B” value in data set [3] was 9.33 nm/s and 6.35 nm/s. In addition, the apparent permeability from apical to basolateral (Papp A→B) at 2 h, 10 μM in data set [4] amounted to 2.51 nm/s.

As for `CC(C)(C)c1ccc(-c2nc3c(F)c(F)c(F)cc3[nH]2)cc1` [Example 64, 2-(4-tert-Butylphenyl)-4,5,6-trifluoro-1H-benzo[d]imidazole], the half-life at 1 μM in data set [1] was found to be 112 min; in data set [5], 83.1 min. Further, the “TNF α Inhibition” value in data set [2] was “A (A = >80% inh.)”. Also, the “Caco2 B → A” value in data set [3] is recorded as 2.54 nm/s. Further, the “Caco2 A → B w/ elacridar” value in data set [3] (with elacridar as transporter inhibitor) was 0.792, nm/s. Besides, the apical-to-basolateral permeability (Papp A→B) at 2 h, 10 μM in data set [4] is 0.0126 nm/s.

For the compound `CC(C)(C)c1ccc(-c2cn3ccccc3n2)cc1` [Example 5, 2-(4-tert-Butylphenyl)imidazo[1,2-a]pyridine], the half-life at 1 μM is 11.5 min in data set [1] and 8.4 min in data set [5]. The “TNF α Inhibition” value in data set [2] is “A (A = >80% inh.)”. In data set [3], the “Caco2 A → B” value was determined as 9.86 nm/s. The apical-to-basolateral permeability (Papp A→B) at 2 h, 10 μM in data set [4] amounted to 8.58 nm/s.

As to `CC(=O)OCn1c(-c2ccc(C(C)(C)C)cc2)nc2ccccc21` [Example 1-P, (2-(4-(tert-Butyl)phenyl)-1H-benzo[d]imidazol-1-yl)methyl acetate], the half-life at 1 μM in data set [1] was 10.1 min. In addition, in data set [4], the apical-to-basolateral permeability (Papp A→B) at 2 h, 10 μM came to 1.05 nm/s.

As for `CC(C)(C)c1cccc(-c2nc3c(F)cc(F)cc3[nH]2)c1` [Example 77, 2-(3-tert-Butylphenyl)-4,6-difluoro-1H-benzo[d]imidazole], the half-life at 1 μM in data set [1] worked out at 31.3 min; in data set [5] it was 10.5 min. Also, in data set [2], the “TNF α Inhibition” value is “A (A = >80% inh.)”. Moreover, the “Caco2 A → B” value in data set [3] amounted to 13.3 nm/s. The Papp A→B at 2 h, 10 μM in data set [4] turned out to be 0.634 nm/s.

Take `Nc1ccc(-c2nc3ccccc3[nH]2)cc1` [Example 76, 2-(4-Aminophenyl)-1H-benzo[d]imidazole]: the half-life at 1 μM in data set [1] is 25.4 min; in data set [5] it was 8.3 min. The “TNF α Inhibition” value in data set [2] was “A (A = >80% inh.)”. Also, the “Caco2 A → B” value in data set [3] amounted to 47.8 nm/s. The Papp A→B at 2 h, 10 μM in data set [4] was 31.1 nm/s.

For `COc1ccc2[nH]c(-c3ccc(C(C)(C)C)cc3)nc2c1` [Example 29, 2-(4-tert-Butylphenyl)-5-methoxy-1H-benzo[d]imidazole], the “TNF α Inhibition” value in data set [2] is given as “A (A = >80% inh.)”.

Turning to `FC(F)(F)c1ccccc1-c1nc2ccccc2[nH]1` [Example 22, 2-(2-Trifluoro-methylphenyl)-1H-benzo[d]imidazole], the “TNF α Inhibition” value in data set [2] is reported as “C (C = <50% inh.)”.

On to `CC(C)(C)c1ccc(-c2nc3cc(C#N)ccc3[nH]2)cc1` [Example 31, 2-(4-tert-Butylphenyl)-1H-benzo[d]imidazole-5-carbonitrile], for which, in data set [2], the “TNF α Inhibition” value is on record as “A (A = >80% inh.)”.

Regarding `Clc1cccc(-c2nc3ccccc3[nH]2)c1` [Example 27, 2-(3-Chlorophenyl)-1H-benzo[d]imidazole], the “TNF α Inhibition” value in data set [2] is recorded as “C (C = <50% inh.)”.

Turning to `CC(C)(C)c1cc(-c2nc3ccccc3[nH]2)cc(C(C)(C)C)c1` [Example 53, 2-(3,5-di-tert-Butylphenyl)-1H-benzo[d]imidazole], in data set [2], the “TNF α Inhibition” value is “C (C = <50% inh.)”.

As for `CC(C)(C)c1ccc(-c2nc3ccccc3[nH]2)cn1` [Example 10, 2-(6-tert-Butyl-3-pyridyl)-1H-benzo[d]imidazole], in data set [2], the “TNF α Inhibition” value is listed as “A (A = >80% inh.)”.

Regarding `CCOc1ccc(-c2nc3ccccc3[nH]2)cc1` [Example 67, 2-(4-Ethoxyphenyl)-1H-benzo[d]imidazole], in data set [2], the “TNF α Inhibition” value is “C (C = <50% inh.)”.

With `Nc1cccc(-c2nc3ccccc3[nH]2)c1` [Example 47, 2-(3-Aminophenyl)-1H-benzo[d]imidazole], the “TNF α Inhibition” value in data set [2] is “C (C = <50% inh.)”.

Regarding `CC(C)(C)c1ccc(-c2nc3ccccc3n2COP(=O)(O)O)cc1` [Example 10-P, Dihydrogen ((2-(4-(tert-butyl)phenyl)-1H-benzo[d]imidazol-1-yl)methyl) phosphate], the half-life at 1 μM in data set [1] and in data set [5] was 159 min in each case. For the same compound, in data set [3], the “Caco2 A → B” value was 0.0893, nm/s and 0.0565 nm/s. Moreover, the Papp A→B at 2 h, 10 μM in data set [4] was found to be 0.014 nm/s.

Consider `Fc1ccc(-c2nc3ccccc3[nH]2)cc1` [Example 34, 2-(4-Fluorophenyl)-1H-benzo[d]imidazole], for which the “TNF α Inhibition” value in data set [2] was “C (C = <50% inh.)”.

Turning to `CC(C)(C)c1ccc(-c2nc3c(C(N)=O)cccc3[nH]2)cc1` [Example 74, 2-(4-tert-Butylphenyl)-1H-benzo[d]imidazol-4-carboxamide], in data set [2], the “TNF α Inhibition” value is “A (A = >80% inh.)”.

Turning to `CC(C)Oc1ccc(-c2nc3ccccc3[nH]2)cc1` [Example 69, 2-(4-Isopropoxyphenyl)-1H-benzo[d]imidazole], in data set [2], the “TNF α Inhibition” value is given as “A (A = >80% inh.)”.

For the compound `Brc1ccccc1-c1nc2ccccc2[nH]1` [Example 23, 2-(2-Bromophenyl)-1H-benzo[d]imidazole], the “TNF α Inhibition” value in data set [2] is “B (B = 50-80% inh.)”.

Regarding `CC(C)(C)c1ccc(-c2nc3cc(O)ccc3[nH]2)cc1` [Example 32, 2-(4-tert-Butylphenyl)-1H-benzo[d]imidazol-5-ol], the “TNF α Inhibition” value in data set [2] is reported as “A (A = >80% inh.)”.

Consider `CC(C)(C)c1ccc(-c2nc3c(N)cccc3[nH]2)cc1` [Example 62, 2-(4-tert-Butylphenyl)-1H-benzo[d]imidazol-4-amine], for which the “TNF α Inhibition” value in data set [2] is on record as “A (A = >80% inh.)”.

On to `c1ccc(-c2nc3ccccc3[nH]2)cc1` [Example 14, 2-(Phenyl)-1H-benzo[d]imidazole], for which the “TNF α Inhibition” value in data set [2] is recorded as “C (C = <50% inh.)”.
